In US20250082651A1, “GANAXOLONE FOR USE IN TREATING GENETIC EPILEPTIC DISORDERS” (Marinus Pharmaceuticals, Inc., priority 2017, published 2025):
Values joined by “and” are separate entries in the source; they are usually repeats but may differ in a detail not shown here. Equal values may be shown once. “Also recorded” adds a separate entry of the source. Read-outs that look alike come from different tables or passages of the source.

Columns and labels:
[1] = Mass balance, single PO dose of 300 mg 14C-GNX in healthy male volunteers; assay type: in vivo; details: human, plasma
Source text: The total plasma radioactivity concentrations achieved were much higher than GNX plasma levels in clinical studies with non-labelled GNX. […] Approximately 80% of the total radioactivity was excreted in faeces and urine by Day 14. […] PK parameters (mean±SD) of ^14C-GNX-derived total radioactivity in Healthy Male Volunteers (Study No. CA042 9402.01 [n=5]) are summarized in Table 22.

[2] = target: CYP3A4 (Homo sapiens, UniProt P08684); assay: In vitro clearance
[3] = In vitro haemolysis and human plasma compatibility
[4] = test system: rats or mice; assay: Reproductive/developmental toxicity and mutagenicity; assay type: in vivo
[5] = test system: dogs; assay: 1-year (chronic oral) dog toxicity study; assay type: in vivo
Source text: There was a physiologically normal shortening of the PR and QT interval in response to the higher heart rate. There was no effect on QRS duration or QTc interval.
In the oral dosing programme, a therapeutic index from non-human NOAEL levels to the adult partial-onset seizure epilepsy and the pharmacokinetics study is approximately 2 to 3-fold in dogs (sedation).

[6] = test system: rats; assay: Intravenous ganaxolone in rats: EEG and status epilepticus models; assay type: in vivo, rat
[7] = human plasma following oral administration; cited from earlier work
[8] = test system: children with CDKL5 Deficiency Disorder; assay: Phase 2 open-label trial, CDKL5 (CDD) cohort, seizure efficacy; assay type: in vivo, human
Source text: Example 3 concerns a Phase 2 Multicenter, Open-Label Proof-of-Concept Trial of ganaxolone (GNX) in cohorts of children having genetic epilepsies (PCDH19, CDKL5 LGS, and CSWS) (ClinicalTrials.gov Identifier: NCT02358538). There were 11 female children with PCDH19 epilepsy between 5-16 years old with a confirmed genetic mutation. There were 6 female and 1 male children with confirmed genetic mutations in the CDKL5 cohort. There were 10 children in the Lennox Gastaut Syndrome cohort. Two children with CSWS were enrolled into the study. The study was conducted with 12 weeks baseline, and up to 26 weeks of treatment followed by a 52 week open label treatment. The primary efficacy was the percentage change in seizure frequency per 28 days relative to baseline calculated using daily seizure diary. [Time Frame: 26 weeks]. Secondary Outcome Measures were: Clinician Global Impression of Change score as assessed by questionnaire. [Time Frame: 26 Weeks]; Patient Global Impression of Change score as assessed by questionnaire. [Time Frame: 26 Weeks]; Evaluation of safety and tolerability of open-label ganaxolone as adjunctive therapy for uncontrolled seizures in children with rare genetic epilepsies, based on adverse event log and other clinical safety assessments. [Time Frame: 26 weeks]; Responder rates [Time Frame: 26 weeks]; and Seizure free days [Time Frame: 26 weeks].
Following screening and baseline evaluations, consenting patients enrolled into a 26-week study during which investigators were allowed to flexibly dose ganaxolone up to a dose of 1,800 mg/day for patients whose body weight was >30 kg, or up to 63 mg/kg/day for patients whose body-weight was <30 kg. The primary efficacy measure is % change from baseline in the 28-day seizure frequency count. Safety and tolerability were within the secondary objectives of the study.
In this study, oral ganaxolone suspension or capsules were administered up to a total of 63 mg/kg/day (maximum 1800 mg/day) over 2-4 weeks. About six-eight titration steps are used, depending on the size of the patient. Children larger than 30 kg may take the ganaxolone capsules. The ganaxolone oral suspension was administered through an oral dosing syringe three times daily. The ganaxolone capsules were administered twice daily. The patients experience better absorption of the ganaxolone with meals (milk).
After establishing baseline seizure frequency, qualifying subjects entered the study and were treated with open-label ganaxolone oral suspension or ganaxolone capsules at doses up to a maximum of 1800 mg/day for up to 6 months. Maximum study participation was 94 weeks: a screening period up to 12 weeks to establish baseline seizure frequency, up to 26 weeks of treatment, a 52 week extension for subjects who benefited from ganaxolone treatment, and up to 4 weeks of down titration period. […] Refractive cases of LGS or CSWS that had prior response to steroid or ACTH could also have been enrolled.
Ganaxolone oral suspension was administered through an oral dosing syringe by parent or legal guardian 3 times daily (TID), following the morning, noon, and evening meal or snack. Each dose was separated by a minimum of 4 hours and a maximum of 8 hours. A missed dose of ganaxolone could have been taken up to 4 hours before the next scheduled dose; otherwise, the missed dose was not to be given.
Ganaxolone capsules were administered with a glass of water or other liquid 2 times daily (BID), following the morning and evening meal or snack. Ganaxolone was provided as either an oral suspension or capsules based on the subject's weight at study entry. Ganaxolone oral suspension was administered through an oral dosing syringe TID by a parent or guardian, following the morning, midday, and evening meal or snack. Each dose was separated by a minimum of 4 hours and a maximum of 8 hours. Ganaxolone capsules were administered BID, following the morning and evening meal or snack. […]

CYP3A4, sequence (P08684 whole entry): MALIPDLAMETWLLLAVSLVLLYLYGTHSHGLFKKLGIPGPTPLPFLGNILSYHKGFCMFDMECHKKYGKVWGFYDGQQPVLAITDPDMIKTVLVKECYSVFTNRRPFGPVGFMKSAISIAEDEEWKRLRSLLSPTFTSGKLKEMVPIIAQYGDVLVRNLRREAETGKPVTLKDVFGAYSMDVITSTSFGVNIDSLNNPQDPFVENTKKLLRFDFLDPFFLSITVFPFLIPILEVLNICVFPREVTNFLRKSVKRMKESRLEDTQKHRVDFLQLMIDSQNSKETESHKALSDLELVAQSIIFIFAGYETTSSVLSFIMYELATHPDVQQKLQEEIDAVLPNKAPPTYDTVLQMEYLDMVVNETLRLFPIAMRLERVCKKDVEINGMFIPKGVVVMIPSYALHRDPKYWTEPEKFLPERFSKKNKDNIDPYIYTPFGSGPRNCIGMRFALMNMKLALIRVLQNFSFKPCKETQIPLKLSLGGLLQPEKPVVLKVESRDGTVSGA

For `CC(=O)[C@H]1CC[C@H]2[C@@H]3CC[C@H]4C[C@](C)(O)CC[C@]4(C)[C@H]3CC[C@]12C` [Ganaxolone, 3α-hydroxy-3β-methyl-5α-pregnan-20-one], the Half-life [1] was about 25 h, the Enzyme driving clearance [2] was “driven mainly by CYP3A4” and the “Compatibility with human plasma” value [3] was “compatible with human plasma”. The Haemolysis [3] was “did not cause haemolysis”, the Mutagenicity ([4]; in vivo) was “No potential for mutagenicity” and the “Effects on fertility and early embryonic development” value ([4]; rats) was “no effects”. For the same compound, the Teratogenicity ([4]; rats or mice) was “not teratogenic”, the “Effect on QRS duration or QTc” value ([5]; 1-year dog study) was “no treatment effect” and the ECG finding ([5]; 1-year dog study, after 3 months of dosing, 4 animals, >190 bpm) was “transient sinus tachycardia”. The Cmax ([5]; 1-year dog toxicity study) was over 1500 ng/mL, the “Findings at mean Cmax greater than 1500 ng/mL” value ([5]; chronic oral toxicity study in dogs, 10 and 15 mg/kg/day) was “increased weight and total plasma cholesterol levels” and the “Therapeutic index from non-human NOAEL levels” value ([5]; oral dosing programme, dogs (sedation)) was 2 to 3 fold. For the same compound, the “Sedative / anaesthetic response” value [6] was “did not cause a full anaesthetic response”, the EEG effect ([6]; otherwise normal rats) was “induce burst suppression-like electroencephalogram (EEG) patterns” and the Half-life [7] was “approximately 20 hours”. The “Improvement in seizure free days, individual patients” value ([8]; 2 out of 4 completed CDKL5 patients) was 78% and 368%, the “Patients with >50% reduction in seizure counts” value ([8]; 4 completed CDKL5 patients) was 3 out of 4 and the “Patients with increase/improvement in seizure-free days” value ([8]; 7 CDKL5 patients) was “Four of the 7; also recorded: Five of the 7”. For the same compound, the “Mean percent change in 28-day total seizure frequency from baseline to Week 26” value ([8]; CDD cohort, PP Population) was 20.55%, the “Median percent change in 28-day total seizure frequency from baseline to Week 26” value ([8]; CDD cohort, PP Population) was 37.70% and the “Clinical global impression of improvement: much improved” value ([8]; CDD cohort, end of Week 26) was 3 subjects. The “Clinical global impression of improvement: very much improved” value ([8]; CDD cohort, end of Week 26) was 0 subjects, the Overall responder rate ([8]; CDKL5, 3 months (3/7 subjects)) was 43% and the Overall responder rate ([8]; CDKL5, 6 months (2/6 subjects)) was 33%. The “28-day seizure frequency, sum of individual seizures and clusters, post-baseline 26-week open-label period, Mean (SD)” value ([8]; CDKL5 N=7, MITT) was 137.70, the “28-day seizure frequency, sum of individual seizures and clusters, post-baseline 26-week open-label period, Median” value ([8]; CDKL5 N=7, MITT) was 67.29 and the “28-day seizure frequency, sum of individual seizures and clusters, post-baseline through Month 3 (Day 91), Mean (SD)” value ([8]; CDKL5 N=7, MITT) was 129.78. For the same compound, the “28-day seizure frequency, sum of individual seizures and clusters, post-baseline through Month 3 (Day 91), Median” value ([8]; CDKL5 N=7, MITT) was 55.69, the “Percent change from baseline (at Day 91), 28-day seizure frequency, sum of individual seizures and clusters, Mean (SD)” value ([8]; CDKL5 N=7, MITT) was 31.23% and −31.23% and the “Percent change from baseline (at Day 91), 28-day seizure frequency, sum of individual seizures and clusters, Median” value ([8]; CDKL5 N=7, MITT) was 47.34% and −47.34%. The “Percent change from baseline (at Week 26), 28-day seizure frequency, sum of individual seizures and clusters, Mean (SD)” value ([8]; CDKL5 N=7, MITT) was 20.55% and −20.55%, the “Percent change from baseline (at Week 26), 28-day seizure frequency, sum of individual seizures and clusters, Median” value ([8]; CDKL5 N=7, MITT) was 37.70% and −37.70% and the “% change seizure rate-12 month, Mean” value ([8]; CDKL5 cohort, N=3) was −56.12%. The “% change seizure rate-12 month, Median” value ([8]; CDKL5 cohort, N=3) was −47.79%, the “Post-baseline 28-day seizure rate-12 month, Mean” value ([8]; CDKL5 cohort, N=3) was 114.39 and the “Post-baseline 28-day seizure rate-12 month, Median” value ([8]; CDKL5 cohort, N=3) was 76.54. The “% change seizure rate-3 month, Mean” value ([8]; CDKL5 cohort, N=7) was −32.67%, the “% change seizure rate-3 month, Median” value ([8]; CDKL5 cohort, N=7) was −49.99% and the “% change seizure rate-6 month, Mean” value ([8]; CDKL5 cohort, N=7) was −16.81%. For the same compound, the “% change seizure rate-6 month, Median” value ([8]; CDKL5 cohort, N=7) was −47.80%, the “Post-baseline 28-day seizure rate-3-month, Mean” value ([8]; CDKL5 cohort, N=7) was 821.16 and the “Post-baseline 28-day seizure rate-3-month, Median” value ([8]; CDKL5 cohort, N=7) was 57.87. For the same compound, the “Post-baseline 28-day seizure rate-6 month, Mean” value ([8]; CDKL5 cohort, N=7) was 1373.85, the “Post-baseline 28-day seizure rate-6 month, Median” value ([8]; CDKL5 cohort, N=7) was 67.29 and the “28-day individual seizure frequency, post-baseline 26-Week open-label period, Mean (SD)” value ([8]; CDKL5 n=7, MITT) was 103.70. The “28-day individual seizure frequency, post-baseline 26-Week open-label period, Median” value ([8]; CDKL5 n=7, MITT) was 67.29, the “28-day individual seizure frequency, post-baseline through Month 3 (Day 91), Mean (SD)” value ([8]; CDKL5 n=7, MITT) was 103.69 and the “28-day individual seizure frequency, post-baseline through Month 3 (Day 91), Median” value ([8]; CDKL5 n=7, MITT) was 53.82. The “Percent change from baseline (at Day 91), 28-day individual seizure frequency, Mean (SD)” value ([8]; CDKL5 n=7, MITT) was −30.33%, the “Percent change from baseline (at Day 91), 28-day individual seizure frequency, Median” value ([8]; CDKL5 n=7, MITT) was −46.64% and the “Percent change from baseline (at Week 26), 28-day individual seizure frequency, Mean (SD)” value ([8]; CDKL5 n=7, MITT) was −21.06%. The “Percent change from baseline (at Week 26), 28-day individual seizure frequency, Median” value ([8]; CDKL5 n=7, MITT) was −38.10%, the “Median percent reduction in seizures” value ([8]; children with CDKL5 disorder) was 43% and the “Reduction in seizure counts, individual patients” value ([8]; completed CDKL5 patients with >50% reduction) was 52% and 59% and 88%. For the same compound, the “Patients with improvement in seizure control that persists for up to 6 months” value ([8]; first 6 CDKL5 patients, preliminary) was 3 of 6.
